In patent US12408664B2 (priority 2018, dated 2025):

Experiments:
G. graminis = experiment: Growth on PDA with calcium propionate fully integrated into the agarose; type: cell-based, Gaeumannomyces graminis
Method: In contrast to the zone of inhibition assays described in Examples 1-3, for this experiment, PDA with calcium propionate fully integrated into the agarose was prepared. Thus, inoculants were grown on plates in which calcium propionate was incorporated at a uniform concentration throughout the plate, rather than the zones of concentration established by simple diffusion in the zone of inhibition assays. The PDA plates were amended with 5, 7.5, 10, or 12% (w/v) calcium propionate. Growth diameter was recorded for 15 days post inoculation. The data shown in Table 3 represent the results of single plate tests.

S. homoeocarpa = experiment: New inoculants in MEB liquid culture amended with calcium propionate; type: cell-based, Scerotinia homoeocarpa; conditions: MEB with 1, 2, 5 and 10% (w/v) calcium propionate; five days
Method: To examine the effective dose range in liquid culture, malt extract broth (MEB) was prepared and amended with calcium propionate at concentrations of 1, 2, 5 and 10% (w/v). Unamended MEB was used as a control for growth. Each of the four microbes identified in Example 1 was tested twice by inoculating MEB using agarose plugs from luxuriant cultures. Growth was observed over five days. In each microbe examined, visible growth in liquid culture was apparent by day 2 following inoculation with well-established growth by 4 days in the absence of calcium propionate.

F. oxysporum = experiment: Fungal plugs on YPA or PDA amended with CaP; type: cell-based, Fusarium oxysporum; conditions: seven days, data not shown
Method: Cultures of F. oxysporum were grown on PDA medium until luxuriant. To test the effect of calcium propionate (CaP), fungal plugs were transferred to YPA or PDA amended with CaP and growth was monitored for seven days. YPA plates were amended with 1%, 4%, or 15% CaP.

CCC(=O)[O-].CCC(=O)[O-].[Ca+2] [calcium propionate]
Growth, G. graminis (G. graminis; PDA with 5% (w/v) calcium propionate, day 4, single plate): 0 cm
Growth, G. graminis (G. graminis; PDA with 5% (w/v) calcium propionate, day 5, single plate): 0 cm
Growth, G. graminis (G. graminis; PDA with 5% (w/v) calcium propionate, day 8, single plate): 0 cm
Growth, G. graminis (G. graminis; PDA with 5% (w/v) calcium propionate, day 11, single plate): 0 cm
Growth, G. graminis (G. graminis; PDA with 5% (w/v) calcium propionate, day 15, single plate): 0 cm
Growth, G. graminis (G. graminis; PDA with 7.5% (w/v) calcium propionate, day 4, single plate): 0 cm
Growth, G. graminis (G. graminis; PDA with 7.5% (w/v) calcium propionate, day 5, single plate): 0 cm
Growth, G. graminis (G. graminis; PDA with 7.5% (w/v) calcium propionate, day 8, single plate): 0 cm
Growth, G. graminis (G. graminis; PDA with 7.5% (w/v) calcium propionate, day 11, single plate): 0 cm
Growth, G. graminis (G. graminis; PDA with 7.5% (w/v) calcium propionate, day 15, single plate): 0 cm
Growth, G. graminis (G. graminis; PDA with 10% (w/v) calcium propionate, day 4, single plate): 0 cm
Growth, G. graminis (G. graminis; PDA with 10% (w/v) calcium propionate, day 5, single plate): 0 cm
Growth, G. graminis (G. graminis; PDA with 10% (w/v) calcium propionate, day 8, single plate): 0 cm
Growth, G. graminis (G. graminis; PDA with 10% (w/v) calcium propionate, day 11, single plate): 0 cm
Growth, G. graminis (G. graminis; PDA with 10% (w/v) calcium propionate, day 15, single plate): 0 cm
Growth, G. graminis (G. graminis; PDA with 12% (w/v) calcium propionate, day 4, single plate): 0 cm
Growth, G. graminis (G. graminis; PDA with 12% (w/v) calcium propionate, day 5, single plate): 0 cm
Growth, G. graminis (G. graminis; PDA with 12% (w/v) calcium propionate, day 8, single plate): 0 cm
Growth, G. graminis (G. graminis; PDA with 12% (w/v) calcium propionate, day 11, single plate): 0 cm
Growth, G. graminis (G. graminis; PDA with 12% (w/v) calcium propionate, day 15, single plate): 0 cm
Growth, G. graminis (G. graminis; any of the concentrations tested (5, 7.5, 10, 12% w/v), 15 days): no growth
growth in liquid culture, S. homoeocarpa (S. homoeocarpa): no growth was observed
F. oxysporum growth (F. oxysporum; YPA amended with 1% CaP): not impacted
F. oxysporum growth (F. oxysporum; YPA amended with 4% or 15% CaP): unable to grow
